Results published in ChEMBL document CHEMBL1697723, “A predictive ligand-based Bayesian model for human drug-induced liver injury” (Drug Metab Dispos, 2010).
Residues, ends and D or L forms follow the SMILES beside them.

Test system: Hepatotoxicity
Experiment: Human drug-induced liver injury (DILI) modelling dataset from Ekins et al
Settings: not given

SMILES | Hepatotoxicity
CC[C@H]1OC(=O)[C@H](C)[C@@H](O[C@H]2C[C@@](C)(OC)[C@@H](O)[C@H](C)O2)[C@H](C)[C@@H](O[C@@H]2O[C@H](C)C[C@H](N(C)C)[C@H]2O)[C@](C)(O)C[C@@H](C)CN(C)[C@H](C)[C@@H](O)[C@]1(C)O [AZITHROMYCIN] | DILI negative (test set)
CC1(C)S[C@@H]2[C@H](NC(=O)[C@H](NC(=O)N3CCNC3=O)c3ccccc3)C(=O)N2[C@H]1C(=O)[O-].[Na+] [AZLOCILLIN SODIUM] | DILI negative (test set)
C[C@H]1[C@H](NC(=O)/C(=N\OC(C)(C)C(=O)O)c2csc(N)n2)C(=O)N1S(=O)(=O)O [AZTREONAM] | DILI negative (training set)
CC[C@H](C)[C@H](N)C1=N[C@H](C(=O)N[C@@H](CC(C)C)C(=O)N[C@H](CCC(=O)O)C(=O)N[C@H](C(=O)N[C@H]2CCCCNC(=O)[C@H](CC(N)=O)NC(=O)[C@@H](CC(=O)O)NC(=O)[C@H](Cc3cnc[nH]3)NC(=O)[C@@H](Cc3ccccc3)NC(=O)[C@H]([C@@H](C)CC)NC(=O)[C@@H](CCCN)NC2=O)[C@@H](C)CC)CS1 [BACITRACIN] (HELM PEPTIDE1{[CC[C@H](C)[C@H](N)C1=N[C@H](C(=O)[*:2])CS1].L.[dE].I.K.[NCCC[C@@H](N[*:1])C(=O)[*:2]].I.[dF].H.[dD].N}$PEPTIDE1,PEPTIDE1,5:R3-11:R2$$$V2.0) | DILI negative (training set)
CN(C)C(=O)Oc1cc(OC(=O)N(C)C)cc(C(O)CNC(C)(C)C)c1 (stereo unspecified) [BAMBUTEROL] | DILI negative (training set)
CCC(=O)OCC(=O)[C@@]1(OC(=O)CC)[C@@H](C)C[C@H]2[C@@H]3CCC4=CC(=O)C=C[C@]4(C)[C@@]3(Cl)[C@@H](O)C[C@@]21C [BECLOMETHASONE DIPROPIONATE] | DILI negative (training set)
CCOC(=O)[C@H](CCc1ccccc1)N[C@H]1CCc2ccccc2N(CC(=O)O)C1=O [BENAZEPRIL] | DILI negative (training set)
CC(C(=O)O)c1ccc2oc(-c3ccc(Cl)cc3)nc2c1 (stereo unspecified) [BENOXAPROFEN] | DILI positive (test set)
CCc1oc2ccccc2c1C(=O)c1cc(Br)c(O)c(Br)c1 [BENZBROMARONE] | DILI positive (training set)
CC(C)COCC(CN(Cc1ccccc1)c1ccccc1)N1CCCC1.Cl.O (stereo unspecified) [BEPRIDIL HYDROCHLORIDE] | DILI positive (training set)
CNCCc1ccccn1.Cl.Cl [BETAHISTINE HYDROCHLORIDE] | DILI positive (training set)
C[N+](C)(C)CC(=O)O.[Cl-] [BETAINE HYDROCHLORIDE] | DILI negative (test set)
C[C@H]1C[C@H]2[C@@H]3CCC4=CC(=O)C=C[C@]4(C)[C@@]3(F)[C@@H](O)C[C@]2(C)[C@@]1(O)C(=O)CO [BETAMETHASONE] | DILI negative (training set)
CC(C)(Oc1ccc(CCNC(=O)c2ccc(Cl)cc2)cc1)C(=O)O [BEZAFIBRATE] | DILI negative (training set)
CC(O)(CS(=O)(=O)c1ccc(F)cc1)C(=O)Nc1ccc(C#N)c(C(F)(F)F)c1 (stereo unspecified) [BICALUTAMIDE] | DILI positive (training set)
O=C(O)CCCC[C@@H]1SC[C@@H]2NC(=O)N[C@@H]21 [BIOTIN] | DILI negative (training set)
CCCC[C@@H](CC)COC(=O)c1ccccc1C(=O)OC[C@@H](CC)CCCC [BIS(2-ETHYLHEXYL)PHTHALATE] | DILI positive (test set)
Oc1c(Cl)cc(Cl)cc1Sc1cc(Cl)cc(Cl)c1O [BITHIONOL] | DILI positive (test set)
COc1ccccc1Oc1c(NS(=O)(=O)c2ccc(C(C)(C)C)cc2)nc(-c2ncccn2)nc1OCCO [BOSENTAN] | DILI positive (test set)
Nc1c(CC(=O)O)cccc1C(=O)c1ccc(Br)cc1 [BROMFENAC] | DILI positive (test set)

SMILES | Hepatotoxicity
Brc1ccccc1 [BROMOBENZENE] | DILI positive (test set)
NCCBr [BROMOETHANAMINE] | DILI positive (test set)
CN(C)CCC(c1ccc(Br)cc1)c1ccccn1.O=C(O)/C=C\C(=O)O (stereo unspecified) [BROMPHENIRAMINE MALEATE] | DILI negative (training set)
CCCCNc1cc(C(=O)O)cc(S(N)(=O)=O)c1Oc1ccccc1 [BUMETANIDE] | DILI positive (training set)
CCCCN1CCCCC1C(=O)Nc1c(C)cccc1C (stereo unspecified) [BUPIVACAINE] | DILI negative (training set)
CC(NC(C)(C)C)C(=O)c1cccc(Cl)c1.Cl (stereo unspecified) [BUPROPION HYDROCHLORIDE] | DILI negative (training set)
O=C1CC2(CCCC2)CC(=O)N1CCCCN1CCN(c2ncccn2)CC1 [BUSPIRONE] | DILI negative (test set)
CS(=O)(=O)OCCCCOS(C)(=O)=O [BUSULFAN] | DILI positive (training set)
Clc1ccc(CCC(Cn2ccnc2)Sc2c(Cl)cccc2Cl)cc1.O=[N+]([O-])O (stereo unspecified) [BUTOCONAZOLE NITRATE] | DILI negative (test set)
Cc1cc(C(C)(C)C)c(O)c(C(C)(C)C)c1 [BUTYLATED HYDROXYTOLUENE] | DILI positive (test set)
Cn1c(=O)c2c(ncn2C)n(C)c1=O [CAFFEINE] | DILI negative (test set)
C=C1CC[C@H](O)C/C1=C/C=C1\CCC[C@]2(C)[C@@H]([C@H](C)CCCC(C)(C)O)CC[C@@H]12.O [CALCIFEDIOL] | DILI positive (test set)
CC(C)(CO)[C@@H](O)C(=O)NCCC(=O)[O-].CC(C)(CO)[C@@H](O)C(=O)NCCC(=O)[O-].[Ca+2] [CALCIUM PANTOTHENATE] | DILI negative (training set)
COc1cc(CNC(=O)CCCC/C=C/C(C)C)ccc1O [CAPSAICIN] | DILI negative (test set)
C[C@H](CS)C(=O)N1CCC[C@H]1C(=O)O [CAPTOPRIL] | DILI positive (training set)
NC(=O)N1c2ccccc2C=Cc2ccccc21 [CARBAMAZEPINE] | DILI positive (test set)
COC(=O)Nc1nc2ccccc2[nH]1 [CARBENDAZIM] | DILI positive (training set)
CC1(C)[C@@H](OC(=O)CCC(=O)[O-])CC[C@]2(C)[C@H]3C(=O)C=C4[C@@H]5C[C@@](C)(C(=O)[O-])CC[C@]5(C)CC[C@@]4(C)[C@]3(C)CC[C@@H]12.[Na+].[Na+] [CARBENOXOLONE SODIUM] | DILI negative (training set)
C[C@@](Cc1ccc(O)c(O)c1)(NN)C(=O)O.O [CARBIDOPA] | DILI negative (training set)
ClC(Cl)(Cl)Cl [CARBON TETRACHLORIDE] | DILI positive (test set)

SMILES | Hepatotoxicity
CC1=C(C(=O)O)N2C(=O)[C@@H](NC(=O)[C@H](N)c3ccc(O)cc3)[C@H]2SC1 [CEFADROXIL] | DILI positive (test set)
Cn1nnnc1SCC1=C(C(=O)[O-])N2C(=O)[C@@H](NC(=O)[C@H](O)c3ccccc3)[C@H]2SC1.[Na+] [CEFAMANDOLE SODIUM] | DILI positive (test set)
CCN1CCN(C(=O)N[C@@H](C(=O)N[C@@H]2C(=O)N3C(C(=O)O)=C(CSc4nnnn4C)CS[C@H]23)c2ccc(O)cc2)C(=O)C1=O.O.O [CEFOPERAZONE DIHYDRATE] | DILI negative (training set)
CO[C@@]1(NC(=O)C2SC(=C(C(N)=O)C(=O)O)S2)C(=O)N2C(C(=O)O)=C(CSc3nnnn3C)CS[C@@H]21 (stereo partly specified) [CEFOTETAN] | DILI negative (test set)
CN(C)CCn1nnnc1SCC1=C(C(=O)O)N2C(=O)[C@@H](NC(=O)Cc3csc(N)n3)[C@H]2SC1.Cl.Cl [CEFOTIAM HYDROCHLORIDE] | DILI positive (test set)
CO[C@@]1(NC(=O)Cc2cccs2)C(=O)N2C(C(=O)O)=C(COC(N)=O)CS[C@@H]21 [CEFOXITIN] | DILI positive (test set)
CC(C)(O/N=C(\C(=O)N[C@@H]1C(=O)N2C(C(=O)[O-])=C(C[n+]3ccccc3)CS[C@H]12)c1csc(N)n1)C(=O)O [CEFTAZIDIME] | DILI negative (test set)
O=C(Cc1cccs1)N[C@@H]1C(=O)N2C(C(=O)[O-])=C(C[n+]3ccccc3)CS[C@H]12 [CEPHALORIDINE] | DILI positive (test set)
CC(=O)OCC1=C(C(=O)[O-])N2C(=O)[C@@H](NC(=O)Cc3cccs3)[C@H]2SC1.[Na+] [CEPHALOTHIN SODIUM] | DILI positive (test set)
CC(=O)OCC1=C(C(=O)[O-])N2C(=O)[C@@H](NC(=O)CSc3ccncc3)[C@H]2SC1.[Na+] [CEPHAPIRIN SODIUM] | DILI negative (test set)
CC1=C(C(=O)O)N2C(=O)[C@@H](NC(=O)[C@H](N)C3=CCC=CC3)[C@H]2SC1 [CEPHRADINE] | DILI negative (test set)
COCc1c(C(C)C)nc(C(C)C)c(/C=C/[C@@H](O)C[C@@H](O)CC(=O)O)c1-c1ccc(F)cc1 [CERIVASTATIN] | DILI positive (test set)
C[C@H](CCC(=O)O)[C@H]1CC[C@H]2[C@@H]3[C@H](O)C[C@@H]4C[C@H](O)CC[C@]4(C)[C@H]3CC[C@]12C [CHENODIOL] | DILI positive (training set)
CCCCCCCCCCCCCCCC(=O)OC[C@@H](NC(=O)C(Cl)Cl)[C@H](O)c1ccc([N+](=O)[O-])cc1 [CHLORAMPHENICOL PALMITATE] | DILI positive (training set)
CCN(CC)CCCC(C)Nc1ccnc2cc(Cl)ccc12.O=P(O)(O)O.O=P(O)(O)O (stereo unspecified) [CHLOROQUINE PHOSPHATE] | DILI negative (test set)
CN(C)CCC(c1ccc(Cl)cc1)c1ccccn1.O=C(O)/C=C\C(=O)O (stereo unspecified) [CHLORPHENIRAMINE MALEATE] | DILI positive (training set)
CN(C)CCCN1c2ccccc2Sc2ccc(Cl)cc21 [CHLORPROMAZINE] | DILI positive (training set)
CCCNC(=O)NS(=O)(=O)c1ccc(Cl)cc1 [CHLORPROPAMIDE] | DILI positive (test set)

Same assay, conditions: Liver

SMILES | Hepatotoxicity
Cl[C@H]1[C@H](Cl)[C@@H](Cl)[C@H](Cl)[C@@H](Cl)[C@@H]1Cl [BETA-HEXACHLOROCYCLOHEXANE] | DILI positive (training set)
Cc1ccc(-c2cc(C(F)(F)F)nn2-c2ccc(S(N)(=O)=O)cc2)cc1 [CELECOXIB] | DILI positive (test set)
ClC(Cl)Cl [CHLOROFORM] | DILI positive (test set)
